From ChEMBL document CHEMBL1201862, “PubChem BioAssay data set” (2004) come the findings set out here.

Assay [1] deals with HEK293. Nature of the assay: HEK cell cytotoxicity by LDH release, dose response, cytotoxicity control for IDE activator project, fluorescence, HEK cells (AID 588440).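 Further: cytotoxicity by LDH release measuring loss of membrane integrity.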 The conditions noted are these: Homo sapiens. The assay is classed as functional, cell-based. A general note: LDH leaks from cells whose membrane has failed.
In assay [2] the target is T1, Insulin-degrading enzyme (Homo sapiens, UniProt P14735).
T1 sequence (P14735 whole entry): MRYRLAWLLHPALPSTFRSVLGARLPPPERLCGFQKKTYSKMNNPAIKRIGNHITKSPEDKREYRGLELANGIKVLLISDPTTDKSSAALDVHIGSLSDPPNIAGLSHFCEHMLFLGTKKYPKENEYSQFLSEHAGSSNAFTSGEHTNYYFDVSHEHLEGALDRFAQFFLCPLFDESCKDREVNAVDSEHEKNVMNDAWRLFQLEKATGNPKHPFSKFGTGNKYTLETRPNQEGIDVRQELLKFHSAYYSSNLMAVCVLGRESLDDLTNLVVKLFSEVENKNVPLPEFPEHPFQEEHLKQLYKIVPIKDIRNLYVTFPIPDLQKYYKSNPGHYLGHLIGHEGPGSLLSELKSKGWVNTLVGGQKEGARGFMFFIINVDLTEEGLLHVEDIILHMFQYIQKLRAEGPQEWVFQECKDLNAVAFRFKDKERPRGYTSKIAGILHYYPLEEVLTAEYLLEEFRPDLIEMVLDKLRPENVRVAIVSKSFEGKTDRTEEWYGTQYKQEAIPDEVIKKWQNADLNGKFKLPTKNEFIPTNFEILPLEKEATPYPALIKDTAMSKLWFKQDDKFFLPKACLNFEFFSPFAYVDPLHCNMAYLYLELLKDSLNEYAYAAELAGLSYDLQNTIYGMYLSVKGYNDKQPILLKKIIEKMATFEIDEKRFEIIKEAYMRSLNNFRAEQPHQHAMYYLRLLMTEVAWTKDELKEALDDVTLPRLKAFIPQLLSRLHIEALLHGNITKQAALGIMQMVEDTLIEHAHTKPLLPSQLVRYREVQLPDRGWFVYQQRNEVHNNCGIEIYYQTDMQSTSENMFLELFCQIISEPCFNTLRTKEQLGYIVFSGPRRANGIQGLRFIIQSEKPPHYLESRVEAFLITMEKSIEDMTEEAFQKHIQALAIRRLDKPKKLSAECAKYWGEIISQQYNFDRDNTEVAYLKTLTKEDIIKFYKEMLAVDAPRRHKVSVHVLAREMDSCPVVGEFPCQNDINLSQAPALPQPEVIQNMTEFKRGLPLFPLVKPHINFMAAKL
Nature of the assay: activators of endogenous IDE in HEK cells, dose response, cell-based, fluorescence polarization (AID 588439). The assay is classed as functional. Background: Polarisation of emitted light reports the rotation of a fluorescent probe.

Assay [3] has as its system HEK293. Description: optical interference in Abeta FP readout, dose response, artefact control for IDE activator project, biochemical, fluorescence polarization (AID 588442). The assay is classed as functional, cell-based. As to conditions: Homo sapiens.
Assay [4] addresses T1, Insulin-degrading enzyme. Nature of the assay: activators of recombinant IDE enzyme, dose response, counter-screen for IDE activator project, biochemical, fluorescence polarization (AID 588681). In general terms: A counterscreen serves to expose hits that act by an unwanted route or on another target.
Assay [5] is described as follows: cells.
Assay [6] concerns Vero. Nature of the assay: cells. The assay is classed as functional, cell-based. The conditions noted are these: Chlorocebus sabaeus.
Assay [7] concerns Vero. Nature of the assay: cells. It is filed as functional. As to conditions: Chlorocebus sabaeus.
Assay [8] is described as follows: HEp-2 cell cytotoxicity, dose response, cytotoxicity control for RSV inhibitor project, HTS (AID 2410). It is filed as functional. As to conditions: human respiratory syncytial virus.
The target of assay [9] is SUMO E1/E2 (Homo sapiens, UniProt P63279+Q9UBE0+Q9UBT2). Nature of the assay: SAR analysis of SUMOylation using HTRF in an in-Vitro dose response assay. [Related pubchem assays (depositor defined):AID2006, AID2011, AID2018, AID2069, AID2658]. It is filed as functional.
Sequence of SUMO E1/E2 (Q9UBE0 whole entry): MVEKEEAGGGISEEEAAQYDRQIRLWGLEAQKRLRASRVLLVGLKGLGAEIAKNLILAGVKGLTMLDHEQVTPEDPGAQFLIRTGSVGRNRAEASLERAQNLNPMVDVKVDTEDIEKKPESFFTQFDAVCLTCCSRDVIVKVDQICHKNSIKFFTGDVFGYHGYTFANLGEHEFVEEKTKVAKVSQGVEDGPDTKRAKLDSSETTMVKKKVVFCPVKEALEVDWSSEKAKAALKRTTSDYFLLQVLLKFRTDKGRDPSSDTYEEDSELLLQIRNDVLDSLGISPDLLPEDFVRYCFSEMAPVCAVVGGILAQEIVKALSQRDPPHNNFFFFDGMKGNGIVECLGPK
Sequence of SUMO E1/E2 (Q9UBT2 whole entry): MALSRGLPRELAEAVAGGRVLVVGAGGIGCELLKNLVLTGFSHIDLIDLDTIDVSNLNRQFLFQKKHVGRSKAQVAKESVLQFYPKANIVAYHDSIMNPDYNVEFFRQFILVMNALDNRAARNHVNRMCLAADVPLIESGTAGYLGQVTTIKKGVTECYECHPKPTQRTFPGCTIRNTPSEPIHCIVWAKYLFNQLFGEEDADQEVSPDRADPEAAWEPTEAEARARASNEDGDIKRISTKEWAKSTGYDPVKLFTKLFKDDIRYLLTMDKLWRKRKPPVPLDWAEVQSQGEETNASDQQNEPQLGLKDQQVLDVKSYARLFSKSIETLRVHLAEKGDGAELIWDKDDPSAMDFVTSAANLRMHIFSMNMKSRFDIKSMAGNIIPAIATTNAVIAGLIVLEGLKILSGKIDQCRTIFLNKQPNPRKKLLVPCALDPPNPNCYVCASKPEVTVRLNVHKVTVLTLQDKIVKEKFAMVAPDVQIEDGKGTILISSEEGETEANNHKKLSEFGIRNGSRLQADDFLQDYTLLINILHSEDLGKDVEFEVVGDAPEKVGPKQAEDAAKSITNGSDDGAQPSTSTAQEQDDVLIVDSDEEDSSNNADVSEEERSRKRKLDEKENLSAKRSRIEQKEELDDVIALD
Sequence of SUMO E1/E2 (P63279 whole entry): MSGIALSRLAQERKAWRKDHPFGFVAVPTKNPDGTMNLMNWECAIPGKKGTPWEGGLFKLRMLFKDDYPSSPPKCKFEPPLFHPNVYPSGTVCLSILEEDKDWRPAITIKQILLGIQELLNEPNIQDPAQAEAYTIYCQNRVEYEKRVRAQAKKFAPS
Assay [10] deals with Potassium voltage-gated channel subfamily KQT member 2 (Rattus norvegicus, UniProt O88943). Description: KCNQ2 potassium channel inhibitors, dose response, cell-based, automated electrophysiology, set II, rat KCNQ2 (AID 588637). It is filed as functional.
The target of assay [11] is T2, Carboxy-terminal domain RNA polymerase II polypeptide A small phosphatase 1 (Homo sapiens, UniProt Q9GZU7).
T2 sequence (Q9GZU7 whole entry): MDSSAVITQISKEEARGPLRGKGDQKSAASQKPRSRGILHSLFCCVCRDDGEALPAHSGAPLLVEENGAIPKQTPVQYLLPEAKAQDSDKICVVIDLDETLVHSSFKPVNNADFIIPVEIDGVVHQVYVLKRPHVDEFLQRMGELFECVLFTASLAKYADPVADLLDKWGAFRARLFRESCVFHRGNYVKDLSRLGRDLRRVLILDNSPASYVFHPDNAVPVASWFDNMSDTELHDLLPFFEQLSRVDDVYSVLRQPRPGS
Description: inhibitors of CTDSP1, concentration-response testing, biochemical assay, absorbance-based, actives from ultra-high-throughput screening (AID 540297). The assay is classed as functional.

For assay [12], the target named is T3, Voltage-gated N-type calcium channel alpha-1B subunit/Amyloid beta A4 precursor protein-binding family A member 1 (Homo sapiens, UniProt Q00975+Q02410). Nature of the assay: disruptors of Mint-PDZ/N-type channel peptide interaction – biochemical, HTRF, SAR follow-up (AID 2489). It is filed as functional.
T3 sequence (Q00975 whole entry): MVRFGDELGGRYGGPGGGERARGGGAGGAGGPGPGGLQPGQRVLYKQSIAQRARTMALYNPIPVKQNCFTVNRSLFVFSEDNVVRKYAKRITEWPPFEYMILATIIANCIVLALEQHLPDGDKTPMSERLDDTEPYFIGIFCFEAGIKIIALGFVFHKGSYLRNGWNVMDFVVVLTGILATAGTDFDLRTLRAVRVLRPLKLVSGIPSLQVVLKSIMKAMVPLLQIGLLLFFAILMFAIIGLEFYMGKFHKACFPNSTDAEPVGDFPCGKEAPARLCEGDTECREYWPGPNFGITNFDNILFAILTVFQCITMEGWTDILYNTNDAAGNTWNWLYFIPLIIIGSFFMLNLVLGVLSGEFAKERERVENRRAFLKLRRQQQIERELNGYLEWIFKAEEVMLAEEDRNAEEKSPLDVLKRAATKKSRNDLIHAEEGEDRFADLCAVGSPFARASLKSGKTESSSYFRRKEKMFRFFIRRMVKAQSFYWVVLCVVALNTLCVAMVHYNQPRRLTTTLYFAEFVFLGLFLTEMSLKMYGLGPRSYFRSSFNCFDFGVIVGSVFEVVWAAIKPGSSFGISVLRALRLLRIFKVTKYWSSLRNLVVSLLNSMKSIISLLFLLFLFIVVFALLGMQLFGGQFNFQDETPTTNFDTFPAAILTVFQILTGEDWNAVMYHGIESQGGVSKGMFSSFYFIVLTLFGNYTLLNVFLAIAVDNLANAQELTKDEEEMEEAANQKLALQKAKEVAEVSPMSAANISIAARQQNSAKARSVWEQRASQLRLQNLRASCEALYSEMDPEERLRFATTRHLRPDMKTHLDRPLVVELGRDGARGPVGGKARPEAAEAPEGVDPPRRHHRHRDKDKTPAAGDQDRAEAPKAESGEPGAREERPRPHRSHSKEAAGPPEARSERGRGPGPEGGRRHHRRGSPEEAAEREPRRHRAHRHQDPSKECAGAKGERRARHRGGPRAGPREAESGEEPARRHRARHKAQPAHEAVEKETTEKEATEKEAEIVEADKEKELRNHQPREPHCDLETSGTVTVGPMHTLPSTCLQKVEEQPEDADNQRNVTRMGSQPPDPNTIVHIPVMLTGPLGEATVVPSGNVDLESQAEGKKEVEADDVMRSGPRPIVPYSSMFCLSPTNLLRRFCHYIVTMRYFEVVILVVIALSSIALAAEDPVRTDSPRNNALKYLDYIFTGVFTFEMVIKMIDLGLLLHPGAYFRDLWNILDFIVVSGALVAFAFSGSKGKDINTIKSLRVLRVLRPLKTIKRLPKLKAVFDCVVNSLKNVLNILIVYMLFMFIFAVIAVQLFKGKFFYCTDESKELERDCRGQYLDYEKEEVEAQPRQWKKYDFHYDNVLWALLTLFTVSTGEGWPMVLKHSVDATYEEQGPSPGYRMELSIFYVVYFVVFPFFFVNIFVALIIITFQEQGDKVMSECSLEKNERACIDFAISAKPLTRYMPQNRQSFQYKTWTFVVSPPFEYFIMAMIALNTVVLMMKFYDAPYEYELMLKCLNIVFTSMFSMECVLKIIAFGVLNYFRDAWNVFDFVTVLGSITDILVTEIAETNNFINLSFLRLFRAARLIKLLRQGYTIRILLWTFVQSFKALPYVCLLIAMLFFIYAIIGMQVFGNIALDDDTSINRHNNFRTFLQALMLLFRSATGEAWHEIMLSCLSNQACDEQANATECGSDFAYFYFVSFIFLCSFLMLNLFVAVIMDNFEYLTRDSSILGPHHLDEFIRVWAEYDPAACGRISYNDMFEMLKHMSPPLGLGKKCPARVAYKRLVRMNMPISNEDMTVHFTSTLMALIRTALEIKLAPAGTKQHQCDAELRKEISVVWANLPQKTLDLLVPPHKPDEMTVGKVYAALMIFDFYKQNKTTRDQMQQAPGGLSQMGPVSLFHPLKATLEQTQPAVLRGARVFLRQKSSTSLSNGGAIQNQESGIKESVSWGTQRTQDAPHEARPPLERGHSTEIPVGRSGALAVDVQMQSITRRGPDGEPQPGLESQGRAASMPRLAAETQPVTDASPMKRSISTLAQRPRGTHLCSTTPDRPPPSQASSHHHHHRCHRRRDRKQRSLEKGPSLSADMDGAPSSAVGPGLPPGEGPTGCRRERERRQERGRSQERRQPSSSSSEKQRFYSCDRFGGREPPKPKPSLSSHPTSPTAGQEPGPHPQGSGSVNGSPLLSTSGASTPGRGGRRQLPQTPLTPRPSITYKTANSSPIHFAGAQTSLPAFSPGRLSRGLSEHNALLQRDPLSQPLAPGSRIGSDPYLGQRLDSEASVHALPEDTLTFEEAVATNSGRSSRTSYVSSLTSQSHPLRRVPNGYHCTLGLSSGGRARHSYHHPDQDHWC
T3 sequence (Q02410 whole entry): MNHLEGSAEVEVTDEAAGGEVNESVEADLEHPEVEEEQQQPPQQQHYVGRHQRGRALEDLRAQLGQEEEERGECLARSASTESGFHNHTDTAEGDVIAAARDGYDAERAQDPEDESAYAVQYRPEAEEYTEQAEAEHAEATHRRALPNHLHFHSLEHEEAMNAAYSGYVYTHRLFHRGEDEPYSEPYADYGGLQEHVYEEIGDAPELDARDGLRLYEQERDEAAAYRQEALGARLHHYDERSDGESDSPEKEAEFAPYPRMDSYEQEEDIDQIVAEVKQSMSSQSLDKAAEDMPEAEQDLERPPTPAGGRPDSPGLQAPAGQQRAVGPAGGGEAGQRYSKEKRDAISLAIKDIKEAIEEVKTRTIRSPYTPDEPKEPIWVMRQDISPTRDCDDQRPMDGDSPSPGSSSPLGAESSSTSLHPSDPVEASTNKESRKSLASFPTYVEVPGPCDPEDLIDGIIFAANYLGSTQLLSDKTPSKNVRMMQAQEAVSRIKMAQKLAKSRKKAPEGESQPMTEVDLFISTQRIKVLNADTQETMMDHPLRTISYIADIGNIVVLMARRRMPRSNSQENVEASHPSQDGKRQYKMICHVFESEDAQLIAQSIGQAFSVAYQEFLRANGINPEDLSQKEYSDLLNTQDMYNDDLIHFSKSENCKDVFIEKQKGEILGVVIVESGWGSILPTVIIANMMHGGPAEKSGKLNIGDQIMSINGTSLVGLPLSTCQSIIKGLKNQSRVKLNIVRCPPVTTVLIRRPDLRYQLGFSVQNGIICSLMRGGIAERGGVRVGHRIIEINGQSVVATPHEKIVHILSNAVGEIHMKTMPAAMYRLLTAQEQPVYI
For assay [13], the target named is T3, Voltage-gated N-type calcium channel alpha-1B subunit/Amyloid beta A4 precursor protein-binding family A member 1. Description: disruptors of Mint-PDZ/N-type channel peptide interaction – biochemical, HTRF, set 2, SAR follow-up (AID 434980). It is filed as functional.
For assay [14], the target named is T4, Apoptotic protease-activating factor 1 (Homo sapiens, UniProt O14727).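 Further: caspase-3 cleavage of fluorogenic Rh110 DEVD substrate downstream of apoptosome activation.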
T4 sequence (O14727 whole entry): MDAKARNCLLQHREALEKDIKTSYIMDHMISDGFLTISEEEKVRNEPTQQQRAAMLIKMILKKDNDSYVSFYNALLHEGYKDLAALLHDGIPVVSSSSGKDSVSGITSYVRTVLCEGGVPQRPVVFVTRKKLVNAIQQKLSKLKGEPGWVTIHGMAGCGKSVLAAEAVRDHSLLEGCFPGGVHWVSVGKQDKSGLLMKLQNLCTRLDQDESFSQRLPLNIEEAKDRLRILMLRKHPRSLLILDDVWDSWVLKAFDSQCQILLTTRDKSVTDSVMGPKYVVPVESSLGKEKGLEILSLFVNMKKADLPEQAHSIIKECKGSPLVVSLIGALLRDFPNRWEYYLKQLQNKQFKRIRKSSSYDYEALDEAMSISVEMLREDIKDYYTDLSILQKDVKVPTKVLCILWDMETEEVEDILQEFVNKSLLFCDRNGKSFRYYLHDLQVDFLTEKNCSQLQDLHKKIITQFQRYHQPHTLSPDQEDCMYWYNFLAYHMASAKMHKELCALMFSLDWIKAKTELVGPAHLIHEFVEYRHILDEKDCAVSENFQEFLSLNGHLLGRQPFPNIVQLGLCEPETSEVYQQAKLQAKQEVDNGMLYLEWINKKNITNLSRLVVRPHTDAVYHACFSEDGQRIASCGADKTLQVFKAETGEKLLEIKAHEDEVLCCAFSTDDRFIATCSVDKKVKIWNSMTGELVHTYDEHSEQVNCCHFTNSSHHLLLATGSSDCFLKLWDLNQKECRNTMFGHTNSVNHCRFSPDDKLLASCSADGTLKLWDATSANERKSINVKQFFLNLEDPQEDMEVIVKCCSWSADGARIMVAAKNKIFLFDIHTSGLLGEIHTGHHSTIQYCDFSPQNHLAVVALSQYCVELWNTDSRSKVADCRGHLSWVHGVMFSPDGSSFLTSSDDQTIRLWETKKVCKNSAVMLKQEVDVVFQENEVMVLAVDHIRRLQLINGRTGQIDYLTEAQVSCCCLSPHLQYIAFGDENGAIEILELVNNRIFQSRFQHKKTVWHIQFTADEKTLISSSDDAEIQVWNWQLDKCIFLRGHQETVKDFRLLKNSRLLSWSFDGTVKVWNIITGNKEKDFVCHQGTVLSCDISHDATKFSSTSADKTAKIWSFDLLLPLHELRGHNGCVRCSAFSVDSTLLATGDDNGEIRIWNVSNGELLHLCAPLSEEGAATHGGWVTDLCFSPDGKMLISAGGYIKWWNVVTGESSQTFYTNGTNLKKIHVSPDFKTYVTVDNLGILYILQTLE
Nature of the assay: SAR analysis of small molecule Activators of Apaf-1 in a Fluorescent assay. It is filed as functional. As to conditions: read-out: EC50_Mean.

The target in assay [15] is Activin receptor type-1 (Homo sapiens, UniProt Q04771). Description: Navigating the Kinome. Panel member name: ACVR1. The assay is classed as functional.
Sequence of Activin receptor type-1 (Q04771 whole entry): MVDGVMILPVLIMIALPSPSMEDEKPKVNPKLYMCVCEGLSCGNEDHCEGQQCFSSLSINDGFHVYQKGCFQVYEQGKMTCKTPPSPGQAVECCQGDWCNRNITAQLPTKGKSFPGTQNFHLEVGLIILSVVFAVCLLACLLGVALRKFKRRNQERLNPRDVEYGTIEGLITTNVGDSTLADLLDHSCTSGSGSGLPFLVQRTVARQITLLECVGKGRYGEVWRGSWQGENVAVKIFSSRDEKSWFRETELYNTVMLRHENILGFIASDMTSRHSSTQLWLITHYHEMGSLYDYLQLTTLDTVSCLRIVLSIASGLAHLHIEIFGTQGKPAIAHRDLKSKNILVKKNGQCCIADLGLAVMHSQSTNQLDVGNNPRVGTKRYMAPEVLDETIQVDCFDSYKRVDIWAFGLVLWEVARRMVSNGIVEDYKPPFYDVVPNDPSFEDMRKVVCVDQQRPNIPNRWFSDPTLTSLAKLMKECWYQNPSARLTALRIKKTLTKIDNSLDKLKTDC

Where “and” joins values, the source holds several entries; their conditions need not be identical. Equal values may be shown once. Calls of active or inactive are those of the source.

Turning to `CCc1nnc(NS(=O)(=O)c2ccc(N/C=C3/C(=O)NC(=O)N(c4ccc(Cl)cc4)C3=O)cc2)s1`, in assay [1], the IC50 (in general, the concentration that gives 50% inhibition) is > 89.2 µM (inactive). For the same compound, the EC50 in assay [2], in [3] and in assay [4] was > 54.7 µM (inactive) throughout.
On to `O=C(O)c1ccccc1Nc1ccc([N+](=O)[O-])cc1`, for which the IC50 in assay [1] is > 89.1 µM (inactive); in assay [5], 2.4 µM (active); in assay [6] it was 8.6 µM (active). The EC50 in [2] was 7.99 µM (active); in assay [3], 6.88 µM (active); in assay [4], 14 µM (inactive). For the same compound, the CC50 (usually the concentration that lowers cell viability or growth by half) in assay [7] is > 25 µM (active); in assay [8] it was 8.65 µM (active).
With `COc1ccc(CCNC(=O)c2cc(-c3ccco3)nc3ccccc23)cc1`, the IC50 was 16.5 µM (active) in assay [9]; 4.08 µM (active) in assay [10]; 4.22 µM (active) in [11]; 17.3 µM (active) and > 56.8 µM (inactive) in assay [12]; 12.8 µM (active) and > 56.8 µM (inactive) in assay [13].
As to `CC(Cc1ccc2c(c1)OCO2)C(=O)O` (centres undefined), the EC50 in assay [14] is > 100 µM (inactive).
As for `O=C1Cc2c([nH]c3ccc([N+](=O)[O-])cc23)-c2ccccc2N1` [ALSTERPAULLONE], the Ki (as a rule, a measure of affinity in units of concentration, obtained from inhibition or displacement) in assay [15] is 0.0631 µM (active).
